≈ marks a conversion by molar mass, not a printed value. Like-named read-outs stand apart in the source and are kept apart here.
Experiments:
Test in all cases: Agar Dilution MIC (Table I)
Format in all cases: cell-based
Staph. aureus = conditions: Staphylococcus aureus
Staph. epi = conditions: read-out: Agar Dilution MIC
Strep. A = conditions: strain C203; read-out: Agar Dilution MIC
Strep. PN = conditions: strain PARK
Strep. D = conditions: for MIC: read-out: Agar Dilution MIC
Excerpt: A typical and preferred compound provided by this invention is 7-(3-benzothienyl)glycylamido-3-methyl-3-cephem-4-carboxylic acid, the compound illustrated in Example 9. The antibacterial activity of this compound has been determined in standard in vitro agar dilution assays against a variety of gram positive and gram negative microorganism. The following Tables present typical minimum inhibitory concentrations (MIC's) in μg/ml for several compounds of the invention when evaluated against the indicated microorganisms. MIC's for several known compounds are also presented for comparison.
Agar Dilution MIC (μg/ml)

H. influ. = conditions: read-out: Agar Dilution MIC
E. coli = conditions: Escherichia coli
Klebsiella = conditions: for MIC: Klebsiella, read-out: Agar Dilution MIC
[1] = read-out: Agar Dilution MIC, strain S13E
[2] = strain V41, read-out: Agar Dilution MIC
[3] = strain X1.1, read-out: Agar Dilution MIC
[4] = strain X400, read-out: Agar Dilution MIC

SMILES	MIC (Staph. aureus; [1]) [µg/mL]	MIC (Staph. aureus; [2]) [µg/mL]	MIC (Staph. aureus; [3]) [µg/mL]	MIC (Staph. aureus; [4]) [µg/mL]	MIC (Staph. epi) [µg/mL]	MIC (Staph. epi; strain 222) [µg/mL]	MIC (Strep. A) [µg/mL]	MIC (Strep. PN) [µg/mL]	MIC (Strep. D) [µg/mL]	Agar Dilution MIC (Strep. D; strain 2041) [µg/mL]	MIC (H. influ.; strain 76) [µg/mL]	MIC (H. influ.; strain C.L.) [µg/mL]	MIC (E. coli; strain EC14) [µg/mL]	MIC (E. coli; strain N10) [µg/mL]	MIC (E. coli; strain TEM) [µg/mL]	MIC (Klebsiella) [µg/mL]	MIC (Klebsiella; strain X26) [µg/mL]	Agar Dilution MIC (Klebsiella; strain X68) [µg/mL]	MIC (Staph. epi; strain EPI1) [µg/mL]	MIC (Strep. D; strain 2041) [µg/mL]	also measured
CC1=C(C(=O)O)N2C(=O)C(NC(=O)[C@@H](N)c3csc4c(F)cccc34)C2SC1 (stereo partly drawn) [Ex. 21, L-7-(7-Fluoro-3-benzothienyl)glycylamido-3-methyl-3-cephem-4-carboxylic acid]	128 (≈ 304 µM)	128 (≈ 304 µM)	32 (≈ 75.9 µM)	128 (≈ 304 µM)	128 (≈ 304 µM)	64 (≈ 152 µM)	8 (≈ 19 µM)	16 (≈ 38 µM)	128 (≈ 304 µM)	128	8 (≈ 19 µM)	64 (≈ 152 µM)	128 (≈ 304 µM)	128 (≈ 304 µM)	128 (≈ 304 µM)	128 (≈ 304 µM)	64 (≈ 152 µM)	128	–	–	–
CC1=C(C(=O)O)N2C(=O)C(NC(=O)[C@@H](N)c3csc4ccc(Cl)cc34)C2SC1 (stereo partly drawn) [Ex. 38A, L-7-(5-chloro-3-benzothienyl)glycylamido-3-methyl-3-cephem-4-carboxylic acid]	16 (≈ 36.5 µM)	32 (≈ 73.1 µM)	8 (≈ 18.3 µM)	64 (≈ 146 µM)	–	16 (≈ 36.5 µM)	1 (≈ 2.28 µM)	2 (≈ 4.57 µM)	–	–	2 (≈ 4.57 µM)	32 (≈ 73.1 µM)	64 (≈ 146 µM)	64 (≈ 146 µM)	64 (≈ 146 µM)	–	16 (≈ 36.5 µM)	–	16 (≈ 36.5 µM)	64 (≈ 146 µM)	MIC (Strep. D; strain X66): 64 µg/mL (≈ 146 µM); MIC (Klebsiella; strain KAE): 64 µg/mL (≈ 146 µM); MIC (Klebsiella; strain X68): 64 µg/mL (≈ 146 µM)
CC1=C(C(=O)O)N2C(=O)C(NC(=O)[C@H](N)c3csc4cccc(Cl)c34)C2SC1 (stereo partly drawn) [Ex. 36B, D-7-(4-chloro-3-benzothienyl)glycylamido-3-methyl-3-cephem-4-carboxylic acid]	128 (≈ 292 µM)	128 (≈ 292 µM)	16 (≈ 36.5 µM)	128 (≈ 292 µM)	128 (≈ 292 µM)	8 (≈ 18.3 µM)	8 (≈ 18.3 µM)	8 (≈ 18.3 µM)	128 (≈ 292 µM)	128	16 (≈ 36.5 µM)	–	128 (≈ 292 µM)	128 (≈ 292 µM)	128 (≈ 292 µM)	128 (≈ 292 µM)	–	128	–	–	MIC (H. influ.): 128 µg/mL (≈ 292 µM); Agar Dilution MIC (Klebsiella; strain KAE): 128 µg/mL
CC1=C(C(=O)O)N2C(=O)C(NC(=O)[C@H](N)c3csc4cc(Cl)ccc34)C2SC1 (stereo partly drawn) [Ex. 37B, D-7-(6-chloro-3-benzothienyl)glycylamido-3-methyl-3-cephem-4-carboxylic acid]	–	8 (≈ 18.3 µM)	1 (≈ 2.28 µM)	16 (≈ 36.5 µM)	–	2 (≈ 4.57 µM)	0.5 (≈ 1.14 µM)	1 (≈ 2.28 µM)	–	–	1 (≈ 2.28 µM)	8 (≈ 18.3 µM)	128 (≈ 292 µM)	128 (≈ 292 µM)	128 (≈ 292 µM)	–	4 (≈ 9.13 µM)	–	4 (≈ 9.13 µM)	32 (≈ 73.1 µM)	MIC (Strep. D; strain X66): 128 µg/mL (≈ 292 µM); MIC (Klebsiella; strain KAE): 128 µg/mL (≈ 292 µM); MIC (Klebsiella; strain X68): 128 µg/mL (≈ 292 µM)

— US4492693A, “Benzothienylglycyl cephalosporin derivatives” (priority 1983, dated 1985)
